Assay results taken from publication PMC5622171 (Nature Communications, 2017).

Experiments:
[1] = molecular target: T1, YSK1 (Homo sapiens, UniProt O00506); test: KINOMEscan kinase profiling; assay type: binding; settings: read-out: %Inhibition by 10 μM SPA70
T1 construct: purchased DiscoverX (Ambit Biosciences) KINOMEscan
Summary of the method: (§1)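 KINOMEscan profiling followed a published protocol. Kinases whose inhibition exceeded a set cut-off were then tested in a dilution series beginning at 30 µM.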

[2] = molecular target: T2, CSK (Homo sapiens, UniProt P41240); test: KINOMEscan kinase profiling; assay type: binding
T2 construct: purchased DiscoverX (Ambit Biosciences) KINOMEscan
Summary of the method: as §1

[3] = molecular target: T3, IRAK4 (Homo sapiens, UniProt Q9NWZ3); test: KINOMEscan kinase profiling; assay type: binding
T3 construct: purchased DiscoverX (Ambit Biosciences) KINOMEscan
Summary of the method: as §1

[4] = molecular target: T4, ERN1 (Homo sapiens, UniProt O75460); test: KINOMEscan kinase profiling; assay type: binding; settings: read-out: %Inhibition by 10 μM SPA70
T4 construct: purchased DiscoverX (Ambit Biosciences) KINOMEscan
Summary of the method: as §1

[5] = molecular target: T5, hPXR with TIF2 (Homo sapiens, UniProt O75469); test: Mammalian two-hybrid assay; assay type: cell-based; settings: LS180 cells; SPA70 10 µM, SJB7 4 µM
T5 construct: expressed in transfected cells; host or cells: LS180
Source text: (§2) The mammalian two-hybrid assay method has been described previously. Briefly, the CheckMate mammalian two-hybrid system (Promega) was used to evaluate the association between hPXR and its co-regulators. LS180 cells were co-transfected with an hPXR plasmid (pACT-hPXR, pACT-hPXRM429A or pACT-hPXRF429A), a coregulator plasmid (pBIND-SRC-1, pBIND-TIF2, pBIND-SMRTτ [amino acids 2077–2471], or pBIND-mNCoR [amino acids 1958–2401]), and a GAL4 firefly luciferase reporter plasmid (pG5-luc). The Renilla luciferase is constitutively expressed from the pBIND vector, and served as an internal transfection control. The activity of the firefly and Renilla luciferase was measured by using the Dual-Glo Luciferase Assay (Promega), and the relative luciferase activity of pG5-luc was determined by normalizing the activity of firefly luciferase to that of Renilla luciferase.

[6] = molecular target: T6, hPXR with SRC-1 (Homo sapiens, UniProt O75469); test: Mammalian two-hybrid assay; assay type: cell-based; settings: LS180 cells; SPA70 10 µM, SJB7 4 µM
T6 construct: expressed in transfected cells; host or cells: LS180
Source text: as §2

[7] = test system: CYP3A4 promoter; test: hPXR-CYP3A4-luc reporter mice (hydrodynamic injection), bioluminescence imaging; assay type: in vivo, mouse; settings: transient transgenic mice, SPA70 150 mg kg−1, RIF 10 mg kg−1
Protocol: For the hydrodynamic injections, treatment, and in vivo imaging, in vivo delivery of the CYP3A4-luc reporter gene and the hPXR gene into mouse liver was performed using the hydrodynamic injection method described previously, [53], [54]. Briefly, by a rapid (5–10 s) tail-vein injection, each mouse received 25 μg of linearized CYP3A4-luc plasmid DNA with linearized hPXR plasmid DNA in sterile saline in a volume equal to 10% of its body weight. Imaging for luciferase activity was performed 2–8 weeks after somatic gene transfer (the bioluminescence was stable in the mice during the 2–8 weeks period). Fifteen mice were given i.p. injections of VivoGlo luciferin (Promega) (150 mg kg^−1 of body weight), anesthetized with 2.5% isoflurane, and imaged 10 min later in a Xenogen IVIS 200 system (Xenogen) to obtain a basal image. […] The mice were imaged 10 h after the last treatment in each round. The Living Image 3.2 software (Xenogen) was used to analyze the total photon flux of uniform regions of interest drawn around the liver. The CYP3A4-luc reporter activity (expressed as induction rate) was determined by using the total photon flux from the same mouse before and after treatment: induction rate = total photon flux (after treatment)/total photon flux (before treatment).

T5 sequence (O75469 whole entry): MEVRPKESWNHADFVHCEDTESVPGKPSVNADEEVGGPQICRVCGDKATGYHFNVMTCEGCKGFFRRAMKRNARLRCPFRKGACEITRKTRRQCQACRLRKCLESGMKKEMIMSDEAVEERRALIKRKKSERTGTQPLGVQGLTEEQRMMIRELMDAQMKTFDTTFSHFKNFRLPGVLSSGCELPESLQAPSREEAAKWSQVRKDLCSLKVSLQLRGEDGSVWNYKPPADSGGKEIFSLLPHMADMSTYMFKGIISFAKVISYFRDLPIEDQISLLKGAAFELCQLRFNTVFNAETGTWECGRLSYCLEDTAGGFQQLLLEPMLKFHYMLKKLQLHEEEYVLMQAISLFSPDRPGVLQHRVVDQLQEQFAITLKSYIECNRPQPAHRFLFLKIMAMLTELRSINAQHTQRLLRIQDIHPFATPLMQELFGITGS
T5 sequence (Q15596 whole entry partner): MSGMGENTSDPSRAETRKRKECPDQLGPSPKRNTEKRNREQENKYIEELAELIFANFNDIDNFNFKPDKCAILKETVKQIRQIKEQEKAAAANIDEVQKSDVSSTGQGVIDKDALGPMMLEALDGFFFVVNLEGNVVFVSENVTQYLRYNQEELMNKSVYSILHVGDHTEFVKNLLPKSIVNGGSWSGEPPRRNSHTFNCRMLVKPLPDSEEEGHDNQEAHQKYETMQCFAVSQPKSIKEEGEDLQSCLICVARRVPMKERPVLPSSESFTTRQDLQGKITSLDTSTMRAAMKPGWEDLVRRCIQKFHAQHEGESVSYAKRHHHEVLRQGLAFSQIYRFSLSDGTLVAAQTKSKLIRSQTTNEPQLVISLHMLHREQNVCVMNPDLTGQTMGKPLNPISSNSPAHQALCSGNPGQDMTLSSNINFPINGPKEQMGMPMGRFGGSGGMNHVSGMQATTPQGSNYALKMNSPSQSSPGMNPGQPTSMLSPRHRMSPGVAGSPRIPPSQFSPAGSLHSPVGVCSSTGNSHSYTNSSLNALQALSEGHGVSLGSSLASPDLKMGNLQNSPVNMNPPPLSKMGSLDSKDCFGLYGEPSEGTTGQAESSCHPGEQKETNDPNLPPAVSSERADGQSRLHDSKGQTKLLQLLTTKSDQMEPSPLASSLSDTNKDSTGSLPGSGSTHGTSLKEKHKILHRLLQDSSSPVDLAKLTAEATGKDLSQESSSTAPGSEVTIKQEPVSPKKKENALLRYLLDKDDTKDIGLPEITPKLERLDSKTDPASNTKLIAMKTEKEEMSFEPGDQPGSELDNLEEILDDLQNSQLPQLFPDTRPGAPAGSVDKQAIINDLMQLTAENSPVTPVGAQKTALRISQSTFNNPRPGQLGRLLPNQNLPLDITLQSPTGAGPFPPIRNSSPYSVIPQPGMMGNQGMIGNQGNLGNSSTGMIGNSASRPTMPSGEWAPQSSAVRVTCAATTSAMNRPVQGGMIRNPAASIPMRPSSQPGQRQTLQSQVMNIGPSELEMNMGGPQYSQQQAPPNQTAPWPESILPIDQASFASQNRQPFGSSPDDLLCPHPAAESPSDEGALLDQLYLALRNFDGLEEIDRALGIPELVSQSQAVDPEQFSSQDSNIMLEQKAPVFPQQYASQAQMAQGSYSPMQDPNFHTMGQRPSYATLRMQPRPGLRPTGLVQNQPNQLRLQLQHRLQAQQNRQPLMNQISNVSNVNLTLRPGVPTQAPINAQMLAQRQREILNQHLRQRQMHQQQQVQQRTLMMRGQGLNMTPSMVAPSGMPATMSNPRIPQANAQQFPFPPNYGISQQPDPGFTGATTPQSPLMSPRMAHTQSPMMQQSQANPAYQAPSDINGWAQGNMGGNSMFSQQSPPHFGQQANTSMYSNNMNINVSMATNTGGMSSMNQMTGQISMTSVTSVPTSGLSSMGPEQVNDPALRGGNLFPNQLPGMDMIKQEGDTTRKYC
T6 sequence (O75469 whole entry): as the sequence (O75469 whole entry) above
T6 sequence (Q15788 whole entry partner): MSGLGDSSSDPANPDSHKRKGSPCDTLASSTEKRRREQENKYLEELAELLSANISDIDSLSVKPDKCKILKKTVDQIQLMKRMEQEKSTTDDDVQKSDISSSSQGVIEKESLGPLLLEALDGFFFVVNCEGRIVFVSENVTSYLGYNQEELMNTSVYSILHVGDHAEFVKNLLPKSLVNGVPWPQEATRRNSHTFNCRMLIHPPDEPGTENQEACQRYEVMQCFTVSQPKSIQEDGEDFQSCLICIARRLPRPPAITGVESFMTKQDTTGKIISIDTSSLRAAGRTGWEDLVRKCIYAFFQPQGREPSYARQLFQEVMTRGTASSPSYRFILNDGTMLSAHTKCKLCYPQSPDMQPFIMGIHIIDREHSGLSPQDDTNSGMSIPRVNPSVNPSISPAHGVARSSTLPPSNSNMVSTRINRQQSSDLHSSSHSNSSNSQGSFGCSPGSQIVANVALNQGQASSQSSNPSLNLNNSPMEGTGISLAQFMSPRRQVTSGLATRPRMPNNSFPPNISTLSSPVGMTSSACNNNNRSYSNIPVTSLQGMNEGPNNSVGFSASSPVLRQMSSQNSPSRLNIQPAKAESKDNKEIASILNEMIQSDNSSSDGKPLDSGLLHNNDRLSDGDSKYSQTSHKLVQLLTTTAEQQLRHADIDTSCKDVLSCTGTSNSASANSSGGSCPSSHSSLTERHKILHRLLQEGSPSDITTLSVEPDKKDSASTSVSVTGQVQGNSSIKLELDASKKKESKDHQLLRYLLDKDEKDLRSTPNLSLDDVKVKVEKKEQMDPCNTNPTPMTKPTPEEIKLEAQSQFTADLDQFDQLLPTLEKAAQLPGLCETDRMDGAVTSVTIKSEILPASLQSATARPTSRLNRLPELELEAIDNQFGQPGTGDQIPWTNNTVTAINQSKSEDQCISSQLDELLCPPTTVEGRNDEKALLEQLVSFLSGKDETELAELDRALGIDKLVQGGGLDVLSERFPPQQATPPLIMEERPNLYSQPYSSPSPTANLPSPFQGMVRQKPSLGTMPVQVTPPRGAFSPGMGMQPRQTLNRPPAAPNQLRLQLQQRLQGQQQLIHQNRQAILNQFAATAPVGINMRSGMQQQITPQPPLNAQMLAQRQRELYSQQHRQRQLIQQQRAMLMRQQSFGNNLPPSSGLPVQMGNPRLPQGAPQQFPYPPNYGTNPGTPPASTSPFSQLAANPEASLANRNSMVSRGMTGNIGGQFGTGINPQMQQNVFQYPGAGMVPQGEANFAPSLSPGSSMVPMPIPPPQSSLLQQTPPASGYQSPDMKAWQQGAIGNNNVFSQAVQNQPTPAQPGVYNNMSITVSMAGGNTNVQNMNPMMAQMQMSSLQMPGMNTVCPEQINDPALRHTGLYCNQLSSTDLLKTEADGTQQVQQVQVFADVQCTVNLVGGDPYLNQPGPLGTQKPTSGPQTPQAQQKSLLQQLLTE
T1 sequence (O00506 whole entry): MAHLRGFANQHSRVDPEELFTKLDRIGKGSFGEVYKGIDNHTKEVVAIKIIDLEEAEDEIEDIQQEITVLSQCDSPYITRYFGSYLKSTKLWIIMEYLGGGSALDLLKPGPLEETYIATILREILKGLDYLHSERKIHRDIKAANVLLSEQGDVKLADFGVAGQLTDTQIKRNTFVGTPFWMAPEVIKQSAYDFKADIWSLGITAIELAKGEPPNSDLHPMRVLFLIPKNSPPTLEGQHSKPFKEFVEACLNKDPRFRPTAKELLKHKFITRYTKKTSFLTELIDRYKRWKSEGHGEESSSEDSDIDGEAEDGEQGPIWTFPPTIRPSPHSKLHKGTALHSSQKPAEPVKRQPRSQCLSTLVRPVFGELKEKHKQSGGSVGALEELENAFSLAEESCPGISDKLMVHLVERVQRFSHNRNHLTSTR
T2 sequence (P41240 whole entry): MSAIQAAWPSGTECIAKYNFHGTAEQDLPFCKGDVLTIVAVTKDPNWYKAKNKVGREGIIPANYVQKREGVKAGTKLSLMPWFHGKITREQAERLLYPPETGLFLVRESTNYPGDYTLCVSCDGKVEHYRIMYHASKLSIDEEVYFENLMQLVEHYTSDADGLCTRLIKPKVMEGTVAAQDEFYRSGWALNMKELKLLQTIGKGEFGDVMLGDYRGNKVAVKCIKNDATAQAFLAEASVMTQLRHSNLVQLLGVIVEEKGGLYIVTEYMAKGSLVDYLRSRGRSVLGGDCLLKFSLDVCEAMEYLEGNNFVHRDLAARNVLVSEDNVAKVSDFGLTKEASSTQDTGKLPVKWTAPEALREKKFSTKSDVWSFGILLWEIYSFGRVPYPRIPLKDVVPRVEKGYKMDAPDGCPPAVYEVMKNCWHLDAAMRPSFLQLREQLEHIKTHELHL
T3 sequence (Q9NWZ3 whole entry): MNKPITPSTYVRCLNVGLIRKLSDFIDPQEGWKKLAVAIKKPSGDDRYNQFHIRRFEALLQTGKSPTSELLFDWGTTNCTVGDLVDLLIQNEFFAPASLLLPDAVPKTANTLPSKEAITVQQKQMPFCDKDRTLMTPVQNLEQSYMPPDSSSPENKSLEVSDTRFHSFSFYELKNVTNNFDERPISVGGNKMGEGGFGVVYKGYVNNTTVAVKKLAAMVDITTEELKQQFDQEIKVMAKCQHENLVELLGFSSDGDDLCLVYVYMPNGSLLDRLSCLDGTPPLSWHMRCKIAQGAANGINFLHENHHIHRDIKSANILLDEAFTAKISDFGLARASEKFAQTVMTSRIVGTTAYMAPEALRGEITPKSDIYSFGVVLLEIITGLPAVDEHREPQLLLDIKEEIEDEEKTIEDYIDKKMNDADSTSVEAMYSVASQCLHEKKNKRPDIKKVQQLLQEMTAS

## COc1ccc(OC)c(-n2nnc(S(=O)(=O)c3ccc(C(C)(C)C)cc3)c2C)c1 [SPA70]
[1]
  inhibition at 10 µM: 2%
[2]
  %Inhibition by 10 μM SPA70: 9%
[3]
  %Inhibition by 10 μM SPA70: 0%
[4]
  inhibition at 10 µM: 0%
[5]
  Increase of association of hPXR with TIF2: did not affect
[6]
  Increase of association of hPXR with SRC-1: did not affect
[7]
  Effect on rifampicin-induced activation of the CYP3A4 promoter: effectively blocked the rifampicin-induced activation of the CYP3A4 promoter
